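Dose response: 5 concentrations. Exposure: 48 h. Format: 96-well plates. Endpoint: linear interpolation; highest concentration if not reached. The concentration for 50% growth inhibition is given as GI50.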 Activity calls are given as the source filed them. Cut-off read from the data, not from the text of the source: active = GI50 up to about 1.1 µM and inactive = higher.
Columns and labels:
Test in all cases: NCI-60 cell line screen, 48 h
A498 = tested on: A498
A549 = tested on: A549
EKVX = tested on: EKVX
HT-29 = tested on: HT-29
Hs-578T = tested on: Hs-578T
IGROV-1 = tested on: IGROV-1
KM12 = tested on: KM12
LOX IMVI = tested on: LOX IMVI
MDA-MB-435 = tested on: MDA-MB-435
MDA-N = tested on: MDA-N
NCI-H23 = tested on: NCI-H23
NCI-H522 = tested on: NCI-H522
OVCAR-4 = tested on: OVCAR-4
OVCAR-8 = tested on: OVCAR-8
RXF 393 = tested on: RXF 393
SF-295 = tested on: SF-295
SK-MEL-5 = tested on: SK-MEL-5
SK-OV-3 = tested on: SK-OV-3
TK-10 = tested on: TK-10

Structure (SMILES)	GI50 (A498)	GI50 (A549)	GI50 (EKVX)	GI50 (HT-29)	GI50 (Hs-578T)	GI50 (IGROV-1)	GI50 (KM12)	GI50 (LOX IMVI)	GI50 (MDA-MB-435)	GI50 (MDA-N)	GI50 (NCI-H23)	GI50 (NCI-H522)	GI50 (OVCAR-4)	GI50 (OVCAR-8)	GI50 (RXF 393)	GI50 (SF-295)	GI50 (SK-MEL-5)	GI50 (SK-OV-3)	GI50 (TK-10)
Cc1ccc(S(=O)(=O)n2ccc(-c3ccc4ccn(S(=O)(=O)c5ccc(C)cc5)c4c3)c2)cc1	> 100 µM (inactive)	> 100 µM (inactive)	> 100 µM (inactive)	> 100 µM (inactive)	27.9 µM (inactive)	> 100 µM (inactive)	> 100 µM (inactive)	> 100 µM (inactive)	> 100 µM (inactive)	> 100 µM (inactive)	> 100 µM (inactive)	> 100 µM (inactive)	> 100 µM (inactive)	> 100 µM (inactive)	12.9 µM (inactive)	> 100 µM (inactive)	> 100 µM (inactive)	> 100 µM (inactive)	> 100 µM (inactive)
c1ccc2c(c1)Oc1cccc3cccc-2c13	> 100 µM (inactive)	> 100 µM (inactive)	> 100 µM (inactive)	> 100 µM (inactive)	> 100 µM (inactive)	> 100 µM (inactive)	> 100 µM (inactive)	> 100 µM (inactive)	> 100 µM (inactive)	> 100 µM (inactive)	> 100 µM (inactive)	> 100 µM (inactive)	> 100 µM (inactive)	> 100 µM (inactive)	> 100 µM (inactive)	> 100 µM (inactive)	> 100 µM (inactive)	> 100 µM (inactive)	> 100 µM (inactive)
COC1(OC)C2(Cl)CCC1(Cl)C(OC(C)=O)C2 (stereo not drawn)	> 100 µM (inactive)	> 100 µM (inactive)	> 100 µM (inactive)	> 100 µM (inactive)	> 100 µM (inactive)	> 100 µM (inactive)	> 100 µM (inactive)	> 100 µM (inactive)	> 100 µM (inactive)	> 100 µM (inactive)	> 100 µM (inactive)	> 74.1 µM (inactive)	> 100 µM (inactive)	> 100 µM (inactive)	> 100 µM (inactive)	> 100 µM (inactive)	> 100 µM (inactive)	> 100 µM (inactive)	> 100 µM (inactive)
CC1=NN(C(=O)c2ccccc2O)C(c2ccccc2Cl)C1C(=O)Nc1ccccc1 (stereo not drawn)	< 0.01 µM (active)	< 0.0158 µM (active)	1.7 µM (inactive)	2.96 µM (inactive)	< 0.01 µM (active)	< 0.028 µM (active)	0.107 µM (active)	0.0728 µM (active)	< 0.0195 µM (active)	< 0.0205 µM (active)	< 0.0378 µM (active)	0.119 µM (active)	0.098 µM (active)	0.0986 µM (active)	0.0553 µM (active)	0.0975 µM (active)	0.167 µM (active)	10.9 µM (inactive)	3.1 µM (inactive)
CC(=O)Nc1ccc(-c2nc3ccccc3s2)cc1I	6.5 µM (inactive)	45 µM (inactive)	7.87 µM (inactive)	> 65.6 µM (inactive)	39.5 µM (inactive)	0.0184 µM (active)	54 µM (inactive)	24.8 µM (inactive)	> 94.8 µM (inactive)	> 100 µM (inactive)	18 µM (inactive)	42.2 µM (inactive)	8.79 µM (inactive)	18.5 µM (inactive)	14.8 µM (inactive)	29.4 µM (inactive)	> 100 µM (inactive)	18.3 µM (inactive)	
C=C1[C@@H](O)C[C@@]23CC[C@@H]4[C@@]5(C)CC[C@@H](OC(C)=O)C(C)(C)[C@@H]5C[C@@H](OC5OC(COC(C)=O)C(O)C(O)C5O)[C@@]4(C)C2=CC[C@H]3[C@H]1C (stereo partly drawn)	9.73 µM (inactive)	4.49 µM (inactive)	10.2 µM (inactive)	2.1 µM (inactive)	5.66 µM (inactive)	3.8 µM (inactive)	2.1 µM (inactive)	3.01 µM (inactive)	4.51 µM (inactive)	5.16 µM (inactive)	10.7 µM (inactive)	5.35 µM (inactive)	5.57 µM (inactive)	7.13 µM (inactive)	4.27 µM (inactive)	4.06 µM (inactive)	4 µM (inactive)	13.1 µM (inactive)	8.41 µM (inactive)
N/C(=N\O)N/N=C/c1ccc2c(c1)OCO2	21 µM (inactive)	14.7 µM (inactive)	8.85 µM (inactive)	36.1 µM (inactive)	> 100 µM (inactive)	25 µM (inactive)	7.55 µM (inactive)	17.4 µM (inactive)	31.4 µM (inactive)	36.5 µM (inactive)	27 µM (inactive)	38.5 µM (inactive)	26.4 µM (inactive)	12.5 µM (inactive)	29 µM (inactive)	33.9 µM (inactive)	15.4 µM (inactive)	47.4 µM (inactive)	55 µM (inactive)
COC(=O)c1c(C)[nH]c2c1C(=O)C(=O)c1nc(C)c(C)nc1-2	2.92 µM (inactive)	7.52 µM (inactive)	8.69 µM (inactive)	14 µM (inactive)	5.85 µM (inactive)	3.41 µM (inactive)	10.8 µM (inactive)	5.79 µM (inactive)	10.7 µM (inactive)	5.37 µM (inactive)	10.2 µM (inactive)	3.48 µM (inactive)	12.9 µM (inactive)	10.2 µM (inactive)	1.98 µM (inactive)	4.54 µM (inactive)	5.77 µM (inactive)	3.5 µM (inactive)	3.6 µM (inactive)
NC(=O)Cc1nc2c(O)ncnc2n1C1OC(CO)C(O)C1O (stereo not drawn)	> 100 µM (inactive)	> 100 µM (inactive)	> 100 µM (inactive)	> 100 µM (inactive)	> 100 µM (inactive)	> 100 µM (inactive)	> 100 µM (inactive)	> 100 µM (inactive)	> 100 µM (inactive)	> 100 µM (inactive)	> 100 µM (inactive)	> 100 µM (inactive)	> 100 µM (inactive)	> 100 µM (inactive)	> 100 µM (inactive)	> 100 µM (inactive)	> 100 µM (inactive)	> 100 µM (inactive)	> 100 µM (inactive)
COC(=O)OC[C@H]1O[C@@H](n2cc(C)c(=O)[nH]c2=O)CC1OC(=O)OC (stereo partly drawn)	> 100 µM (inactive)	> 100 µM (inactive)	> 100 µM (inactive)	> 100 µM (inactive)	> 100 µM (inactive)	> 100 µM (inactive)	> 100 µM (inactive)	> 100 µM (inactive)	> 100 µM (inactive)	> 100 µM (inactive)	> 100 µM (inactive)	> 100 µM (inactive)	> 100 µM (inactive)	> 100 µM (inactive)	> 100 µM (inactive)	> 100 µM (inactive)	> 100 µM (inactive)	> 100 µM (inactive)	> 100 µM (inactive)
COc1ccc(-c2c(N)n(-c3nc4ccccc4s3)c(=O)c3cc([N+](=O)[O-])ccc23)cc1	74 µM (inactive)	11.2 µM (inactive)	14 µM (inactive)	49 µM (inactive)	13.7 µM (inactive)		18.6 µM (inactive)	14.9 µM (inactive)	19 µM (inactive)	70.5 µM (inactive)	13.8 µM (inactive)	10.7 µM (inactive)	24.1 µM (inactive)	11.2 µM (inactive)	14.2 µM (inactive)	22.3 µM (inactive)		15.3 µM (inactive)	38.1 µM (inactive)
O=CN1CCN(C(=O)c2ccc(Cl)cc2Cl)C1=S	42 µM (inactive)	67.3 µM (inactive)	> 100 µM (inactive)	> 100 µM (inactive)	32.4 µM (inactive)	> 100 µM (inactive)	43.2 µM (inactive)	32.3 µM (inactive)	43.9 µM (inactive)	64.6 µM (inactive)	> 100 µM (inactive)	20.3 µM (inactive)	> 100 µM (inactive)	> 100 µM (inactive)	29.3 µM (inactive)	> 100 µM (inactive)		> 100 µM (inactive)	78.7 µM (inactive)
CNC(=O)OCc1nc(N=[N+]=[N-])n(C)c1COC(=O)NC	32.3 µM (inactive)	61.7 µM (inactive)	> 100 µM (inactive)	58.3 µM (inactive)	> 100 µM (inactive)	> 100 µM (inactive)	69.8 µM (inactive)	60.8 µM (inactive)	37.2 µM (inactive)	60.4 µM (inactive)	54.2 µM (inactive)	19.5 µM (inactive)	37.1 µM (inactive)	58.9 µM (inactive)	21.7 µM (inactive)	67.1 µM (inactive)	> 10 µM (inactive)		32.2 µM (inactive)
O=C1CSC(c2cccc(Oc3ccccc3)c2)N1c1cc(Cl)ccc1Cl (stereo not drawn)	32.6 µM (inactive)	48 µM (inactive)	26.1 µM (inactive)	22.4 µM (inactive)	29.7 µM (inactive)		26.4 µM (inactive)	20 µM (inactive)	15.4 µM (inactive)	17.6 µM (inactive)	31.9 µM (inactive)	20.9 µM (inactive)	17.2 µM (inactive)	23.7 µM (inactive)	18.5 µM (inactive)	23 µM (inactive)	16.5 µM (inactive)	39.8 µM (inactive)	25.5 µM (inactive)
CC(CCC(=O)O)(c1ccc(O)cc1)c1ccc(O)cc1	> 100 µM (inactive)	> 100 µM (inactive)	> 100 µM (inactive)	> 100 µM (inactive)	> 100 µM (inactive)	> 100 µM (inactive)	> 100 µM (inactive)	> 100 µM (inactive)	> 100 µM (inactive)	> 100 µM (inactive)	> 100 µM (inactive)	> 100 µM (inactive)	> 100 µM (inactive)	> 100 µM (inactive)	> 100 µM (inactive)	> 100 µM (inactive)	> 100 µM (inactive)		> 100 µM (inactive)

From ChEMBL document CHEMBL1201862, “PubChem BioAssay data set” (2004)
